Data from ChEMBL document CHEMBL1250488, “Structural and functional basis of resistance to neuraminidase inhibitors of influenza B viruses” (J Med Chem, 2010).
pIC50, pKi: −log10 of the molar value.

How the values were obtained:
[1] = Inhibition of Influenza B virus (B/Perth/211/2001) recombinant wild type neuraminidase expressed in Sf21 insect cells after 60 mins by MUNANA based assay
[2] = Inhibition of Influenza B virus (B/Perth/211/2001) wild type recombinant neuraminidase expressed in Sf21 insect cells preincubated for 30 mins measured after 60 mins by MUNANA based assay
[3] = Inhibition of Influenza B virus B/Gifu/11/2005 wild type neuraminidase expressed in Sf21 insect cells preincubated for 30 mins measured after 60 mins by MUNANA based assay
[4] = Inhibition of Influenza B virus B/Gifu/11/2005 wild type neuraminidase expressed in Sf21 insect cells after 60 mins by MUNANA based assay

Structure (SMILES) | pIC50 [1] | pIC50 [2] | pKi [2] | pIC50 [3] | pKi [3] | pKi [4] | pKi [1]
O=C(O)C1(F)O[C@H]([C@H](O)[C@H](O)CO)[C@H](O)[C@@H](O)C1F (some centres not stated) | 4.42 | – | – | – | – | – | –
CCC(CC)[C@H](NC(C)=O)[C@@H]1[C@H](O)[C@@H](C(=O)O)C[C@H]1NC(=N)N [PERAMIVIR ANHYDROUS] | – | 8.55 | 9.22 | 8.68 | 9.52 | 9.15 | 8.92
